In patent US20160304957A1, “TREATMENT AND MODULATION OF GENE EXPRESSION AND SKIN AGING” (DSM NUTRITIONAL PRODUCTS LTD., priority 2006, published 2016):

Experiments:
Format in all cases: cell-based, human
RARα = assay: QRT-PCR gene expression in HaCaT cells with or without UVA
Procedure: (§1) HaCaT cells were obtained from Prof. Fusenig, German Cancer Research Centre, Heidelberg. […] The accuracy of cell counting was approximately 99%.
(§2) On day 3 of the experiment, cells were washed six times with Ca/Mg-free PBS containing 2% BSA, and then irradiated with light with a Hönle sun lamp Sol 500 (Dr. Hönle, Plannegg, Germany) at a dose of 270 kJ/m^2 in Ca/Mg-free PBS (2 hour exposure time at […]). The experimental schedule was chosen because the cells had optimal UVA sensitivity after 48 hours in culture. […] Confluent cultures were much less sensitive to irradiation.
(§3) After irradiation, the cells were supplied with fresh β-carotene-containing serum-free medium and kept in the incubator at 37° C., 5% CO2 until harvest of the samples. In experiments in which the half-life of ^1O2 was prolonged by D2O to enhance its effect, PBS was prepared in D2O, instead of in H2O, as it was done for the standard conditions described above. Cells were washed twice in D2O-PBS prior to irradiation in D2O-PBS. After irradiation, cells were maintained with fresh β-carotene-containing serum-free medium. Sham controls were treated in an identical manner, by placing them under the solar simulator but shielded from light.
(§4) Total RNA was isolated by using Trizol™ (Invitrogen, Basel, Switzerland) according to the instructions of the manufacturer. Random-primed cDNA was synthesized using the Superscript pre-amplification system for first strand cDNA synthesis (Invitrogen).
(§5) cDNA corresponding to 10 ng total RNA was used as template to quantify the relative RNA expression of the genes of interest by TaqMan® real time PCR.
(§6) The PCR analyses were carried out in triplicate and in a multiplex setup, using 18S rRNA as a calibrator gene. The rRNA primers were used at a final concentration of 50 nM, the probe at 100 nM. For quantification of the genes of interest, the primer concentrations were optimized for sensitivity of template detection. […] PCR reactions were carried out for 40 cycles of 95° C. for 15 seconds and 60° C. for 1 minute in an ABI7700 (Applied Biosystems, Rotkreuz, Switzerland). Regulation of gene expression was calculated as described in user bulletin #2 provided by the manufacturer. A threshold cycle (“CT”) is the first PCR cycle in which an amplification signal is detected. Expression levels are given as δCT values. The δCT value describes the level of gene expression as the average PCR cycle, in which the gene of interest was detected first (CT value), subtracted by the CT value of the calibrator gene 18S rRNA (CTgene of interest−CTcalibrating gene), 18S rRNA served as a measure for the amount of template in the reaction. Routinely, 18S rRNA was detected between PCR cycle 12 and 13 (SE=standard error) A low δCT corresponds to a high mRNA level.
(§7) HaCaT cells were pretreated for 2 days with 0.5, 1.5 or 3 μM β-carotene. The cells were irradiated with UVA (270 kJ/m^2) either in D2O-containing PBS or in H2O-containing PBS, to analyze ^1O2 inducibility of genes. Gene expression 5 hours after UVA irradiation was analyzed by QRT-PCR. Values are geometric means±standard error from three independent experiments. Upregulations greater than 1.5-fold are labelled in bold black, downregulations below 0.66-fold are bold grey.

RXRα = assay: as above
Procedure: as §1, §2, §3, §4, §5, §6, §7

MMP-1 = assay: ELISA of MMP-1 release into cell culture supernatant of HaCaT cells
Procedure: HaCaT cells were supplemented with 0.5, 1.5, or 3 μM β-carotene for 2 days prior to UVA (270 kJ/m^2) irradiation. MMP-1 and TIMP-1 secretion 24 hours after irradiation was analyzed by ELISA. Each condition was represented by three replicates in the experiment. Values are means±standard error.
Release of MMP-1, and TIMP-1 into cell culture supernatant was determined by ELISA at 24 hours after irradiation. MMP-1 and TIMP-1 release was measured using MMP-1 and TIMP ELISA from CALBIOCHEM (San Diego, Calif., USA). The ELISAs were performed according to the manufacturer's instructions.

## CC1=C(/C=C/C(C)=C/C=C/C(C)=C/C=C/C=C(C)/C=C/C=C(C)/C=C/C2=C(C)CCCC2(C)C)C(C)(C)CCC1 [β-carotene, All-E-β-carotene]
RARα
  basal or UVA-regulated expression level of RARα: no significant effect
RARα; D2O, UVA/βC 0.5 μM
  RARα fold induction: 1.06 fold
RARα; D2O, UVA/βC 1.5 μM
  RARα fold induction: 1.21 fold
RARα; D2O, UVA/βC 3 μM
  RARα fold induction: 0.52 fold
RARα; D2O, βC 0.5 μM
  RARα fold induction: 1.01 fold
RARα; D2O, βC 1.5 μM
  RARα fold induction: 1.02 fold
RARα; D2O, βC 3 μM
  RARα fold induction: 1.18 fold
RARα; H2O, UVA/βC 0.5 μM
  RARα fold induction: 1.45 fold
RARα; H2O, UVA/βC 1.5 μM
  RARα fold induction: 0.47 fold
RARα; H2O, UVA/βC 3 μM
  RARα fold induction: 0.71 fold
RARα; H2O, βC 0.5 μM
  RARα fold induction: 0.56 fold
RARα; H2O, βC 1.5 μM
  RARα fold induction: 0.67 fold
RARα; H2O, βC 3 μM
  RARα fold induction: 0.55 fold
RXRα
  basal or UVA-regulated expression level of RXRα: no significant effect
RXRα; D2O, UVA/βC 0.5 μM
  RXRα fold induction: 0.68 fold
RXRα; D2O, UVA/βC 1.5 μM
  RXRα fold induction: 0.31 fold
RXRα; D2O, UVA/βC 3 μM
  RXRα fold induction: 0.38 fold
RXRα; D2O, βC 0.5 μM
  RXRα fold induction: 1.25 fold
RXRα; D2O, βC 1.5 μM
  RXRα fold induction: 0.82 fold
RXRα; D2O, βC 3 μM
  RXRα fold induction: 1.06 fold
RXRα; H2O, UVA/βC 0.5 μM
  RXRα fold induction: 0.96 fold
RXRα; H2O, UVA/βC 1.5 μM
  RXRα fold induction: 0.27 fold
RXRα; H2O, UVA/βC 3 μM
  RXRα fold induction: 0.58 fold
RXRα; H2O, βC 0.5 μM
  RXRα fold induction: 0.89 fold
RXRα; H2O, βC 1.5 μM
  RXRα fold induction: 0.98 fold
RXRα; H2O, βC 3 μM
  RXRα fold induction: 1.13 fold
MMP-1; 24 hours after UVA
  UVA-induced MMP-1 production, protein level: Downregulation
MMP-1; unirradiated cells
  basal MMP-1 protein expression: tended to reduce
